How the values were obtained:
Assay type in all cases: in vivo
[1] = tested on: Cyperus iria; assay: Preemergence weed control under flooded paddy conditions, CYPIR (Rice Flatsedge); conditions: flooded paddy; for CYPIR: preemergence weeds, herbicidal effect rating 0-9, three to four weeks after treatment; for herbicidal effect rating, CYPIR / CYPIR herbicidal rating: preemergence, rated three to four weeks after treatment; as to herbicidal effect rating, CYPIR: meaning of each grade not given here
[2] = tested on: Echinochloa oryzoides (Ard.) Fritsch.; assay: Preemergence weed control under flooded paddy conditions, ECHORC (Watergrass (Calif.)); conditions: flooded paddy; for ECHORC: preemergence weeds, herbicidal effect rating 0-9, three to four weeks after treatment; for herbicidal effect rating, ECHORC / ECHORC herbicidal rating: preemergence, rated three to four weeks after treatment; as to herbicidal effect rating, ECHORC: meaning of each grade not given here
[3] = tested on: Sagittaria pygmaea, L.; assay: Preemergence weed control under flooded paddy conditions, SAGPY (Arrowhead (Pygmaea)); conditions: flooded paddy; for SAGPY: preemergence weeds, herbicidal effect rating 0-9, three to four weeks after treatment; for herbicidal effect rating, SAGPY / SAGPY herbicidal rating: preemergence, rated three to four weeks after treatment; as to herbicidal effect rating, SAGPY: meaning of each grade not given here
[4] = tested on: Monochoria vaginalis, Presl.; assay: Preemergence weed control under flooded paddy conditions, MOOVA (Monochoria); conditions: flooded paddy; for MOOVA: preemergence weeds, herbicidal effect rating 0-9, three to four weeks after treatment; for herbicidal effect rating, MOOVA / MOOVA herbicidal rating: preemergence, rated three to four weeks after treatment; as to herbicidal effect rating, MOOVA: meaning of each grade not given here
[5] = tested on: Cyperus serotinus, Rottb.; assay: Preemergence weed control under flooded paddy conditions, CYPSE (Flatsedge); conditions: for CYPSE: preemergence weeds, herbicidal effect rating 0-9, three to four weeks after treatment; for herbicidal effect rating, CYPSE / CYPSE herbicidal rating: preemergence, rated three to four weeks after treatment; as to herbicidal effect rating, CYPSE: meaning of each grade not given here

## Cn1c(C(F)(F)F)cc(=O)n(-c2ccc3snc(C(C#N)=CC4CC4)c3c2)c1=O [Example 458, 1,2-Benzisothiazole-3-acetonitrile, alpha(cyclopropylmethylene)-5-[3,6-dihydro-3-methyl-2,6-dioxo-4-(trifluoromethyl)-1(2H)-pyrimidinyl]-, (E)- and (Z)-]
[1]; 0.0320 kg/ha
  CYPIR: 0.0
[1]; 0.0620 kg/ha
  CYPIR: 4.0
[1]; 0.1250 kg/ha
  CYPIR: 7.0
[1]; 0.2500 kg/ha
  CYPIR: 7.0
[2]; 0.0320 kg/ha
  ECHORC: 5.0
[2]; 0.0620 kg/ha
  ECHORC: 6.0
[2]; 0.1250 kg/ha
  ECHORC: 7.0
[2]; 0.2500 kg/ha
  ECHORC: 8.0
[3]; 0.0320 kg/ha
  SAGPY: 2.0
[3]; 0.0620 kg/ha
  SAGPY: 2.0
[3]; 0.1250 kg/ha
  SAGPY: 6.0
[3]; 0.2500 kg/ha
  SAGPY: 8.0
[4]; 0.0320 kg/ha
  MOOVA: 4.0
[4]; 0.0620 kg/ha
  MOOVA: 6.0
[4]; 0.1250 kg/ha
  MOOVA: 9.0
[4]; 0.2500 kg/ha
  MOOVA: 9.0
[5]; 0.0320 kg/ha
  CYPSE: 2.0

## Cn1c(C(F)(F)F)cc(=O)n(-c2ccc3snc(C(C#N)=Cc4ccccc4C#N)c3c2)c1=O [Example 606, 1,2-Benzisothiazole-3-acetonitrile, alpha-(o-cyanobenzylidene)-5-[3,6-dihydro-3-methyl-2,6-dioxo-4-(trifluoromethyl)-1(2H)-pyrimidinyl]-, (E)- and (Z)-]
[1]; Rate 0.0320 kg/ha
  herbicidal effect rating, CYPIR: 4.0
[1]; Rate 0.0620 kg/ha
  herbicidal effect rating, CYPIR: 6.0
[1]; Rate 0.1250 kg/ha
  herbicidal effect rating, CYPIR: 6.0
[1]; Rate 0.2500 kg/ha
  herbicidal effect rating, CYPIR: 9.0
[2]; Rate 0.0320 kg/ha
  herbicidal effect rating, ECHORC: 5.0
[2]; Rate 0.0620 kg/ha
  herbicidal effect rating, ECHORC: 5.0
[2]; Rate 0.1250 kg/ha
  herbicidal effect rating, ECHORC: 5.0
[2]; Rate 0.2500 kg/ha
  herbicidal effect rating, ECHORC: 6.0
[3]; Rate 0.0320 kg/ha
  herbicidal effect rating, SAGPY: 0.0
[3]; Rate 0.1250 kg/ha
  herbicidal effect rating, SAGPY: 3.0
[3]; Rate 0.2500 kg/ha
  herbicidal effect rating, SAGPY: 4.0
[4]; Rate 0.0320 kg/ha
  herbicidal effect rating, MOOVA: 6.0
[4]; Rate 0.0620 kg/ha
  herbicidal effect rating, MOOVA: 7.0
[4]; Rate 0.1250 kg/ha
  herbicidal effect rating, MOOVA: 7.0
[4]; Rate 0.2500 kg/ha
  herbicidal effect rating, MOOVA: 9.0
[5]; Rate 0.0320 kg/ha
  herbicidal effect rating, CYPSE: 0.0
[5]; Rate 0.0620 kg/ha
  herbicidal effect rating, CYPSE: 2.0
[5]; Rate 0.1250 kg/ha
  herbicidal effect rating, CYPSE: 2.0
[5]; Rate 0.2500 kg/ha
  herbicidal effect rating, CYPSE: 2.0

## Cn1c(C(F)(F)F)cc(=O)n(-c2ccc3snc(COC(=O)c4ccco4)c3c2)c1=O [Example 497, 2,4(1H,3H)-Pyrimidinedione, 3-[3-(hydroxymethyl)-1,2-benzisothiazol-5-yl]-1-methyl-6-(trifluoromethyl)-, 2-furoate (ester)]
[1]; 0.0320 kg/ha
  CYPIR herbicidal rating: 5.0
[1]; 0.0620 kg/ha
  CYPIR herbicidal rating: 6.0
[1]; 0.1250 kg/ha
  CYPIR herbicidal rating: 9.0
[1]; 0.2500 kg/ha
  CYPIR herbicidal rating: 9.0
[2]; 0.0320 kg/ha
  ECHORC herbicidal rating: 0.0
[2]; 0.0620 kg/ha
  ECHORC herbicidal rating: 0.0
[2]; 0.1250 kg/ha
  ECHORC herbicidal rating: 4.0
[2]; 0.2500 kg/ha
  ECHORC herbicidal rating: 7.0
[3]; 0.0320 kg/ha
  SAGPY herbicidal rating: 0.0
[3]; 0.0620 kg/ha
  SAGPY herbicidal rating: 0.0
[3]; 0.1250 kg/ha
  SAGPY herbicidal rating: 2.0
[3]; 0.2500 kg/ha
  SAGPY herbicidal rating: 6.0
[4]; 0.0320 kg/ha
  MOOVA herbicidal rating: 6.0
[4]; 0.0620 kg/ha
  MOOVA herbicidal rating: 7.0
[4]; 0.1250 kg/ha
  MOOVA herbicidal rating: 9.0
[4]; 0.2500 kg/ha
  MOOVA herbicidal rating: 9.0
[5]; 0.1250 kg/ha
  CYPSE herbicidal rating: 6.0
[5]; 0.2500 kg/ha
  CYPSE herbicidal rating: 9.0

## CC(=O)OCCSC(SCCOC(C)=O)c1nsc2ccc(-n3c(=O)cc(C(F)(F)F)n(C)c3=O)cc12 [Example 418, 1,2-Benzisothiazole-3-carboxaldehyde, 5-[3,6-dihydro-3-methyl-2,6-dioxo-4-(trifluoromethyl)-1(2H)-pyrimidinyl]-, 3-[bis(2-hydroxyethyl)dithioacetal], diacetate (diester)]
[1]; 0.0620 kg/ha
  CYPIR: 0.0
[1]; 0.1250 kg/ha
  CYPIR: 0.0
[1]; 0.2500 kg/ha
  CYPIR: 0.0
[2]; 0.0620 kg/ha
  ECHORC: 0.0
[2]; 0.1250 kg/ha
  ECHORC: 1.0
[2]; 0.2500 kg/ha
  ECHORC: 3.0
[4]; 0.0620 kg/ha
  MOOVA: 0.0
[4]; 0.1250 kg/ha
  MOOVA: 0.0
[4]; 0.2500 kg/ha
  MOOVA: 0.0
[5]; 0.0620 kg/ha
  CYPSE: 0.0
[5]; 0.2500 kg/ha
  CYPSE: 0.0

Source: patent EP0908457B1, “3-(1,2-benzisothiazol- and isoxazol-5-Y1)-2,4(1H,3H)-pyrimidinedione or thione and 3-(1,2-benzisothiazol- and isoxazol-5-y1)-4(3H)-pyrimidinone or thione herbicidal agents” (BASF AKTIENGESELLSCHAFT, priority 1997, dated 1999)
